This note sets out measurements from patent US20250064789A1, “KETOAMIDE DERIVATIVES AND PHARMACEUTICAL USES THEREOF” (priority 2022, published 2025).

Where two headings read alike, the source gives them in different places.

In general, IC50 refers to the point on the concentration scale where inhibition reaches its midpoint.

The target in the test is recombinant SARS-CoV-2 M^pro (Severe acute respiratory syndrome coronavirus 2 (2019-nCoV) (SARS-CoV-2), UniProt P0DTD1). The test is described as follows: Inhibition of SARS-CoV-2 M^pro enzyme activity (fluorescent substrate assay). The note with it: inhibition of SARS-CoV-2 M^pro enzyme activity, read-out: IC50. Type of test: biochemical.

As to `O=C(NCc1ccccn1)C(=O)[C@@H](Cc1ccccc1)NC(=O)C1(NC(=O)C23CC4(F)CC(F)(CC(F)(C4)C2)C3)CCC1` [Compound 203], the half-maximal inhibitory concentration (IC50) (values in nM) was found to be 19.6 ± 0.6 nM.

As for `O=C(NCc1ccccn1)C(=O)[C@@H](Cc1ccccc1)NC(=O)C1(NC(=O)C2CC(F)(F)C2)CCC1` [Compound 204], for the setting “values in nM”, the IC50 worked out at 36.7 ± 0.9 nM.

On to `O=C(NCc1ccccn1)C(=O)[C@@H](Cc1ccccc1)NC(=O)C1(NC(=O)C2CCC(O)(C(F)(F)F)CC2)CCC1` (stereo partly drawn) [Compound 205], for which the IC50 (values in nM) worked out at 23.9 ± 0.9 nM.

On to `CC(C)[C@@H]1CC[C@@H](C)C[C@H]1OCC(=O)NC1(C(=O)N[C@H](Cc2ccccc2)C(=O)C(=O)NCc2ccccn2)CCC1` [Compound 206], for which the IC50 (values in nM) was found to be 18 ± 0.5 nM.

As to `O=C(COC1CCCC1)NC1(C(=O)N[C@H](Cc2ccccc2)C(=O)C(=O)NCc2ccccn2)CCC1` [Compound 207], for the setting “values in nM”, the IC50 came to 46.1 ± 0.9 nM.

As to `N#Cc1ccc(OCC(=O)NC2(C(=O)N[C@H](Cc3ccccc3)C(=O)C(=O)NCc3ccccn3)CCC2)cc1` [Compound 208], the IC50 (values in nM) was 37.1 ± 1.7 nM.

For `O=C(CC1CC(F)(F)C1)NC1(C(=O)N[C@H](Cc2ccccc2)C(=O)C(=O)NCc2ccccn2)CCC1` [Compound 209], the IC50 (values in nM) was determined as 12.2 ± 0.2 nM.

For `O=C(CC1CCOCC1)NC1(C(=O)N[C@H](Cc2ccccc2)C(=O)C(=O)NCc2ccccn2)CCC1` [Compound 210], the IC50 (values in nM) turned out to be 20.7 ± 1.1 nM.

With `O=C(NCc1ccccn1)C(=O)[C@@H](Cc1ccccc1)NC(=O)C1(NC(=O)C2C3COCC32)CCC1` (stereo partly drawn) [Compound 211], the IC50 (values in nM) came out at 57.7 ± 3 nM.

Consider `CC1=NN=C(C)C1C(=O)NC1(C(=O)N[C@H](Cc2ccccc2)C(=O)C(=O)NCc2ccccn2)CCC1` [Compound 212], for which the IC50 (values in nM) came out at 346 ± 9.9 nM.

Turning to `O=C(CCC(F)(F)F)NC1(C(=O)N[C@H](Cc2ccccc2)C(=O)C(=O)NCc2ccccn2)CCC1` [Compound 213], the IC50 (values in nM) is 41.4 ± 0.8 nM.

For the molecule `O=C(NCc1ccccn1)C(=O)[C@@H](Cc1ccccc1)NC(=O)C1(NC(=O)C2CC3CCC2C3)CCC1` (stereo partly drawn) [Compound 214], the IC50 (values in nM) worked out at 17.4 ± 0.5 nM.

As for `O=C(NCc1ccccn1)C(=O)[C@@H](Cc1ccccc1)NC(=O)C1(NC(=O)c2ccc(F)cc2)CCC1` [Compound 215], under “values in nM”, the IC50 came out at 13.7 ± 0.9 nM.

Take `O=C(NCc1ccccn1)C(=O)[C@@H](Cc1ccccc1)NC(=O)[C@@H](Cc1ccccc1)NC(=O)[C@H]1CC[C@H](C(F)(F)F)CC1` [Compound 216]: the IC50 (values in nM) came to 16.3 ± 0.4 nM.

Consider `O=C(NCc1ccccn1)C(=O)[C@@H](Cc1ccccc1)NC(=O)[C@@H](Cc1ccccn1)NC(=O)C1CCC(F)(F)CC1` [Compound 217], for which the IC50 (values in nM) was determined as 27.3 ± 1.2 nM.

Consider `O=C(NCc1ccccn1)C(=O)[C@@H](Cc1ccccc1)NC(=O)[C@@H](Cc1cccnc1)NC(=O)C1CCC(F)(F)CC1` [Compound 218], for which the IC50 (values in nM) worked out at 23.4 ± 0.8 nM.

As to `CC(C)C[C@@H](NC(=O)C1CCC(F)(F)CC1)C(=O)N[C@H](Cc1ccccc1)C(=O)C(=O)NCc1ccccn1` [Compound 219], for the setting “values in nM”, the IC50 turned out to be 13.4 ± 1.7 nM.

Regarding `O=C(NCc1ccccn1)C(=O)[C@@H](Cc1ccccc1)NC(=O)[C@@H](CC1CCCCC1)NC(=O)C1CCC(F)(F)CC1` [Compound 220], the IC50 (values in nM) was 13.9 ± 0.1 nM.

For `CC[C@@H](C)[C@@H](NC(=O)C1CCC(F)(F)CC1)C(=O)N[C@H](Cc1ccccc1)C(=O)C(=O)NCc1ccccn1` [Compound 221], under “values in nM”, the concentration for half-maximal inhibition (IC50) amounted to 15.6 ± 1.2 nM.

With `COC[C@@H](NC(=O)C1CCC(F)(F)CC1)C(=O)N[C@H](Cc1ccccc1)C(=O)C(=O)NCc1ccccn1` [Compound 222], the IC50 (values in nM) was determined as 16.5 ± 1.5 nM.

Consider `O=C(NCc1ccccn1)C(=O)[C@@H](Cc1ccccc1)NC(=O)[C@H](NC(=O)C1CCC(F)(F)CC1)C1CCCCC1` [Compound 223], for which the IC50 (values in nM) amounted to 11.1 ± 0.3 nM.

In the case of `CC(C)(C)C[C@@H](NC(=O)C1CCC(F)(F)CC1)C(=O)N[C@H](Cc1ccccc1)C(=O)C(=O)NCc1ccccn1` [Compound 224], where the note is “values in nM”, the IC50 was found to be 25.8 ± 1.3 nM.

`CC(C)(C)OC(=O)N1CC(NC(=O)C2CCC(F)(F)CC2)(C(=O)N[C@H](Cc2ccccc2)C(=O)C(=O)NCc2ccccn2)C1` [Compound 225]: the IC50 (values in nM) stood at 38.2 ± 3 nM.

For the molecule `O=C(NCc1ccccn1)C(=O)[C@@H](Cc1ccccc1)NC(=O)[C@H](NC(=O)C1CCC(F)(F)CC1)C1CCCC1` [Compound 226], where the note is “values in nM”, the IC50 was determined as 16 ± 0.8 nM.

On to `O=C(NCc1ccccn1)C(=O)[C@@H](Cc1ccccc1)NC(=O)C1(NC(=O)C2CCC(F)(F)CC2)CC(F)(F)C1` [Compound 227], for which the IC50 (values in nM) came out at 19 ± 0.3 nM.

On to `O=C(NCc1ccccn1)C(=O)[C@@H](Cc1ccccc1)NC(=O)C1(NC(=O)C2CCC(F)(F)CC2)CCOC1` (stereo partly drawn) [Compound 228], for which the IC50 (values in nM) was 18.1 ± 1.1 nM.

As to `C=C[C@@H]1C[C@]1(NC(=O)C1CCC(F)(F)CC1)C(=O)N[C@H](Cc1ccccc1)C(=O)C(=O)NCc1ccccn1` [Compound 229], where the note is “values in nM”, the IC50 amounted to 33.8 ± 1 nM.

Take `O=C(NCc1ccccn1)C(=O)[C@@H](Cc1ccccc1)NC(=O)[C@H](NC(=O)C1CCC(F)(F)CC1)C1CCOCC1` [Compound 230]: the IC50 (values in nM) came out at 64.5 ± 0.7 nM.

Take `C#CCC(NC(=O)C1CCC(F)(F)CC1)C(=O)N[C@H](Cc1ccccc1)C(=O)C(=O)NCc1ccccn1` (stereo partly drawn) [Compound 231]: the IC50 (values in nM) came out at 35.4 ± 0.2 nM.

`CN(C)CC(NC(=O)C1CCC(F)(F)CC1)C(=O)N[C@H](Cc1ccccc1)C(=O)C(=O)NCc1ccccn1` (stereo partly drawn) [Compound 232]: where the note is “values in nM”, the IC50 was 60.7 ± 0.1 nM.

For the molecule `O=C(NCc1ccccn1)C(=O)[C@@H](Cc1ccccc1)NC(=O)[C@@]1(NC(=O)C2CCC(F)(F)CC2)C[C@H]1C(F)F` [Compound 233], the IC50 (values in nM) was determined as 10.3 ± 0.3 nM.

Turning to `O=C(NCc1ccccn1)C(=O)[C@@H](Cc1ccccc1)NC(=O)C1(NC(=O)C2CCC(F)(F)CC2)COC1` [Compound 234], for the setting “values in nM”, the IC50 is 18.8 ± 2.7 nM.

`O=C(NCc1ccccn1)C(=O)[C@@H](Cc1ccccc1)NC(=O)C1(NC(=O)[C@@H]2C[C@@H]3[C@H](C2)C3(F)F)CC(F)(F)C1` [Compound 235]: the IC50 (values in nM) was found to be 28.6 ± 2.1 nM.

In the case of `O=C(CC1CCC(F)(F)CC1)N[C@H](CC1CCCCC1)C(=O)N[C@H](Cc1ccccc1)C(=O)C(=O)NCc1ccccn1` [Compound 236], the IC50 (values in nM) worked out at 41.4 ± 0.1 nM.

On to `CC(C)(C)C(NC(=O)C1CCC(F)(F)CC1)C(=O)N[C@H](Cc1ccccc1)C(=O)C(=O)NCc1ccccn1` (stereo partly drawn) [Compound 237], for which, for the setting “values in nM”, the IC50 is 132 ± 4.4 nM.

For the molecule `O=C(NCc1ccccn1)C(=O)[C@@H](Cc1ccccc1)NC(=O)C1(NC(=O)C2CCC(F)(F)CC2)CCCC1` [Compound 239], the IC50 (values in nM) is 32.2 ± 1 nM.

As for `CC(C)(O)[C@@H](NC(=O)C1CCC(F)(F)CC1)C(=O)N[C@H](Cc1ccccc1)C(=O)C(=O)NCc1ccccn1` [Compound 241], the IC50 (values in nM) was determined as 42.1 ± 1.6 nM.

As to `CC(C)[C@@H](NC(=O)C1CCC(F)(F)CC1)C(=O)N[C@H](Cc1ccccc1)C(=O)C(=O)NCc1ccccn1` [Compound 242], the IC50 (values in nM) amounted to 26.8 ± 1.8 nM.

For `O=C(NCc1ccccn1)C(=O)[C@@H](Cc1ccccc1)NC(=O)C1(NC(=O)C2CCC(F)(F)CC2)Cc2ccccc2C1` [Compound 243], the IC50 (values in nM) came to 18.4 ± 0.1 nM.

Consider `O=C(CC1CCC(F)(F)CC1)NC1(C(=O)N[C@H](Cc2ccccc2)C(=O)C(=O)NCc2ccccn2)Cc2ccccc2C1` [Compound 244], for which the IC50 (values in nM) is 15.1 ± 0.1 nM.

As to `CC(C)(C)[C@H](NC(=O)C(F)(F)F)C(=O)N[C@H](Cc1ccccc1)C(=O)C(=O)NCc1ccccn1` [Compound 245], the IC50 (values given in μM) was more than 5000 nM.

Take `CC[C@@H](NC(=O)c1ccc(F)cc1)C(=O)N[C@H](Cc1ccccc1)C(=O)C(=O)NCc1ccccn1` [Compound 246]: the IC50 (values in nM) was 23.6 ± 0.3 nM.
